According to patent US11590139B2, “Substituted aminopurine compounds, compositions thereof, and methods of treatment therewith” (Signal Pharmaceuticals, LLC, priority 2014, dated 2023):

What follows are molecules tested on Lox-IMVI melanoma cell line (assay: Lox-IMVI anti-proliferative assay (growth inhibition, Cell Titer-Glo)). Conditions: Homo sapiens; IC50 activity level in the cell-based Lox-IMVI anti-proliferative assay; read-out: Activity.
Assay type: cell-based, human
Outline: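 Cells grown in RPMI + 10% FBS were exposed to compound at 0.5 nM to 10 μM (10-point, 3-fold dilution, duplicate, 0.2% DMSO final) for 72 h at 37 °C, 5% CO2. Viability was read by ATP luminescence at t0 and 72 h. IC50 came from a four-parameter logistic fit normalized to DMSO control.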

Row | IC50 [nM] | Compound
1 | > 1000 | NC(=O)[C@H]1CC[C@@H](n2c(Nc3cc(F)c(Cl)cc3F)nc3cnc(N[C@@H]4COC[C@H]4O)nc32)CC1 [Example 321, (1S,4s)-4-(8-(4-chloro-2,5-difluorophenylamino)-2-((3R,4S)-4-hydroxytetrahydrofuran-3-ylamino)-9H-purin-9-yl)cyclohexanecarboxamide]

Same assay, conditions: Homo sapiens; Lox-IMVI anti-proliferative assay, IC50 activity level; read-out: Activity

Row | IC50 [nM] | Compound
2 | > 1000 | COC(=O)N1CCCC(Nc2ncc3nc(Nc4c(F)cccc4Cl)n([C@H]4CC[C@@H](C(N)=O)CC4)c3n2)C1 (stereo partly drawn) [Example 406, (R)-methyl 3-(9-((1s,4S)-4-carbamoylcyclohexyl)-8-(2-chloro-6-fluorophenylamino)-9H-purin-2-ylamino)piperidine-1-carboxylate]
3 | < 250 | C[C@@H](CO)Nc1ncc2nc(Nc3c(F)cc(Cl)cc3Cl)n([C@H]3CC[C@@](C)(C(N)=O)CC3)c2n1 [Example 547, (1R,4s)-4-(8-(2,4-dichloro-6-fluorophenylamino)-2-((S)-1-hydroxypropan-2-ylamino)-9H-purin-9-yl)-1-methylcyclohexanecarboxamide]
4 | 250 to 500 | C[C@]1(C(N)=O)CC[C@@H](n2c(Nc3c(Cl)cc(F)cc3Cl)nc3cnc(NC4CCCC4)nc32)CC1 [Example 560, (1s,4s)-4-(2-(cyclopentylamino)-8-(2,6-dichloro-4-fluorophenylamino)-9H-purin-9-yl)-1-methylcyclohexanecarboxamide]
5 | 500 to 1000 | N#Cc1cc(F)c(Nc2nc3cnc(NC4CC(F)(F)C4)nc3n2[C@H]2CC[C@@H](C(N)=O)CC2)c(Cl)c1 [Example 400, (1s,4s)-4-(8-(2-chloro-4-cyano-6-fluorophenylamino)-2-(3,3-difluorocyclobutylamino)-9H-purin-9-yl)cyclohexanecarboxamide]

Same assay, conditions: Homo sapiens; Lox-IMVI melanoma cell line, anti-proliferative assay; read-out: Activity (IC50 activity level)

Row | IC50 [nM] | Compound
6 | > 1000 | CC(=O)N1CCC[C@@H](Nc2ncc3nc(Nc4c(F)cc(Cl)cc4Cl)n([C@H]4CC[C@@H](C(N)=O)CC4)c3n2)C1 [Example 711, (1S,4s)-4-(2-((R)-1-acetylpiperidin-3-ylamino)-8-(2,4-dichloro-6-fluorophenylamino)-9H-purin-9-yl)cyclohexanecarboxamide]
7 | > 1000 | CC(C)N1CCC[C@@H](Nc2ncc3nc(Nc4c(Cl)cc(Cl)cc4Cl)n([C@H]4CC[C@@H](C(N)=O)CC4)c3n2)C1 [Example 738, (1S,4s)-4-(2-((R)-1-isopropylpiperidin-3-ylamino)-8-(2,4,6-trichlorophenylamino)-9H-purin-9-yl)cyclohexanecarboxamide]

Further lines, the molecule ahead of its results:

Row | Compound | IC50 [nM]
8 | CCN1CCC[C@@H](Nc2ncc3nc(Nc4c(Cl)cc(C(F)(F)F)cc4Cl)n([C@H]4CC[C@@H](C(N)=O)CC4)c3n2)C1 [Example 737, (1S,4s)-4-(8-(2,6-dichloro-4-(trifluoromethyl)phenylamino)-2-((R)-1-ethylpiperidin-3-ylamino)-9H-purin-9-yl)cyclohexanecarboxamide] | > 1000
9 | C[C@]1(C(N)=O)CC[C@@H](n2c(Nc3c(F)cc(Cl)cc3F)nc3cnc(N[C@H]4CCC[C@@H](O)C4)nc32)CC1 [Example 632, (1R,4s)-4-(8-(4-chloro-2,6-difluorophenylamino)-2-((1S,3R)-3-hydroxycyclohexylamino)-9H-purin-9-yl)-1-methylcyclohexanecarboxamide] | 500 to 1000
10 | NC(=O)[C@H]1CC[C@@H](n2c(Nc3c(F)cc(Cl)cc3F)nc3cnc(N[C@@H]4CCOC[C@H]4F)nc32)CC1 [Example 671, (1S,4s)-4-(8-(4-chloro-2,6-difluorophenylamino)-2-((3S,4R)-3-fluorotetrahydro-2H-pyran-4-ylamino)-9H-purin-9-yl)cyclohexanecarboxamide] | < 250
11 | C[C@]1(C(N)=O)CC[C@@H](n2c(Nc3c(F)cc(F)cc3Cl)nc3cnc(NC4CCC4)nc32)CC1 [Example 604, (1s,4s)-4-(8-(2-chloro-4,6-difluorophenylamino)-2-(cyclobutylamino)-9H-purin-9-yl)-1-methylcyclohexanecarboxamide] | < 250
